Experimental data published in article PMC4099972, “Extracts from New Zealand Undaria pinnatifida Containing Fucoxanthin as Potential Functional Biomaterials against Cancer in Vitro” (Journal of Functional Biomaterials, 2014).
Where two headings read alike, the source gives them in different places.

How the values were obtained:
[1] = tested on: human dermal fibroblasts (HDFb); assay: MTT cell viability assay, non-cancer HDFb; format: cell-based; conditions: Fibroblast, extract concentrations normalized to fucoxanthin purity, read-out: IC50, growth inhibition (non-cancer cell line)
Method: (§1) All three cell lines were purchased from Invitrogen NZ Ltd. HDFb was maintained in Dulbecco’s Modified Eagle Medium supplemented with LSGS. HUVEC cells were maintained in Cascade Biologics Medium 200 supplemented with LSGS. HEK293 cells were maintained in RPMI 1640 culture medium supplemented with 1% Penicillin-Streptomycin, 4 mM L-glutamine and 10% of FBS. Cell viability was determined by MTT assay as previously described with a slight modification. Briefly, the optimized seeding cell density was 5000 cells/well for A549 and WiDr, while for Hep G2, Malme-3M, SiHa, NCI-H522, Lovo, SK-N-SH, and MCF-7, the seeding cell density was 10,000 cells/well. Microplate with 96 wells was used for the experiment and each well contained 100 μL of medium with cancer cells. […] All cancer cell lines were cultured in the presence or absence of fucoxanthin extract or standard. […] An aliquot of 20 μL of MTT reagent in phosphate buffer saline at a concentration of 5 mg/mL was added into each well after experiment, and washed with 150 µL of PBS. After incubation for 4 h at 37 °C, the formed MTT-formazan was dissolved in 150 μL DMSO.

human non-cancer cells = assay: MTT cell viability, human non-cancer cells (control study); format: cell-based; conditions: 1.56 μM
Text: Three human non-cancer cell lines including human dermal fibroblasts (HDFb), human umbilical vein endothelial (HUVEC) and human embryonic kidney (HEK293) were used to determine in vitro toxicity of pure fucoxanthin and extracts from NZ U. pinnatifida. All three cell lines were purchased from Invitrogen NZ Ltd. HDFb was maintained in Dulbecco’s Modified Eagle Medium supplemented with LSGS. HUVEC cells were maintained in Cascade Biologics Medium 200 supplemented with LSGS. HEK293 cells were maintained in RPMI 1640 culture medium supplemented with 1% Penicillin-Streptomycin, 4 mM L-glutamine and 10% of FBS.
Cell viability was determined by MTT assay as previously described [34] with a slight modification. […] Treatment time was 24, 48 or 72 h.
Pure fucoxanthin standard and all U. pinnatifida fucoxanthin extracts were dissolved in pure ethanol to 5 mM as a stock solution, and the final ethanol concentration was 2% in the culture medium. An aliquot of 20 μL of MTT reagent in phosphate buffer saline at a concentration of 5 mg/mL was added into each well after experiment, and washed with 150 µL of PBS. After incubation for 4 h at 37 °C, the formed MTT-formazan was dissolved in 150 μL DMSO. The viable cell amount was determined by the absorbance at 540 nm using a multiplate-reader (UV-visible FLUOStar Omega Multidetection Microplate Reader, AlphaTech NZ Ltd., Auckland, New Zealand). […]

[2] = tested on: human umbilical vein endothelial (HUVEC); assay: MTT cell viability assay, non-cancer HUVEC; format: cell-based; conditions: extract concentrations normalized to fucoxanthin purity, read-out: IC50, growth inhibition (non-cancer cell line)
Method: as §1

[3] = tested on: A549 cell line (lung carcinoma); assay: MTT cell viability assay, A549; format: cell-based; conditions: Homo sapiens, extract concentrations normalized to fucoxanthin purity, read-out: IC50, growth inhibition
Method: (§2) All cancer cell lines were maintained in tissue culture incubator at 37 °C and 5% carbon dioxide. Cell viability was determined by MTT assay as previously described with a slight modification. Briefly, the optimized seeding cell density was 5000 cells/well for A549 and WiDr, while for Hep G2, Malme-3M, SiHa, NCI-H522, Lovo, SK-N-SH, and MCF-7, the seeding cell density was 10,000 cells/well. Microplate with 96 wells was used for the experiment and each well contained 100 μL of medium with cancer cells. […] All cancer cell lines were cultured in the presence or absence of fucoxanthin extract or standard. […] An aliquot of 20 μL of MTT reagent in phosphate buffer saline at a concentration of 5 mg/mL was added into each well after experiment, and washed with 150 µL of PBS. After incubation for 4 h at 37 °C, the formed MTT-formazan was dissolved in 150 μL DMSO. The viable cell amount was determined by the absorbance at 540 nm using a multiplate-reader (UV-visible FLUOStar Omega Multidetection Microplate Reader, AlphaTech NZ Ltd., Auckland, New Zealand).

[4] = tested on: SiHa cell line (cervix squamous carcinoma); assay: MTT cell viability assay, SiHa; format: cell-based, human; conditions: extract concentrations normalized to fucoxanthin purity, read-out: IC50, growth inhibition
Method: as §2

[5] = tested on: Hep G2 cell line (hepatocellular carcinoma); assay: MTT cell viability assay, Hep G2; format: cell-based; conditions: Homo sapiens, HepG2, extract concentrations normalized to fucoxanthin purity, read-out: IC50, growth inhibition
Method: as §2

[6] = tested on: MCF-7 cell line (breast adenocarcinoma); assay: MTT cell viability assay, MCF-7; format: cell-based; conditions: Homo sapiens, MCF7, extract concentrations normalized to fucoxanthin purity, read-out: IC50, growth inhibition
Method: as §2

rats = tested on: rats; set-up: method as in doi:10.3136/nskkk.55.304; conditions: oral, 750 mg/kg for 28 days, purity 95%; cited from earlier work
[7] = tested on: Lovo cell line (colon adenocarcinoma); assay: MTT cell viability assay, Lovo; format: cell-based; conditions: Homo sapiens, extract concentrations normalized to fucoxanthin purity, read-out: IC50, growth inhibition
Method: as §2

[8] = tested on: human embryonic kidney (HEK293); assay: MTT cell viability assay, non-cancer HEK293; format: cell-based; conditions: for IC50: Homo sapiens, extract concentrations normalized to fucoxanthin purity, read-out: IC50, growth inhibition (non-cancer cell line)
Method: as §1

mouse bone marrow cells = tested on: mouse bone marrow cells; set-up: method as in PMID 21720124, PMID 21720125; conditions: cited from earlier work
[9] = cited from earlier work
[10] = tested on: Malme-3M cell line (malignant melanoma); assay: MTT cell viability assay, Malme-3M; format: cell-based, human; conditions: for IC50: Homo sapiens, extract concentrations normalized to fucoxanthin purity, read-out: IC50, growth inhibition
Method: as §2

[11] = tested on: WiDr cell line (colon adenocarcinoma); assay: MTT cell viability assay, WiDr; format: cell-based; conditions: Homo sapiens, extract concentrations normalized to fucoxanthin purity, read-out: IC50, growth inhibition
Method: as §2

[12] = tested on: NCI-H522 cell line (lung cancer); assay: MTT cell viability assay, NCI-H522; format: cell-based; conditions: Homo sapiens, extract concentrations normalized to fucoxanthin purity, read-out: IC50, growth inhibition
Method: as §2

[13] = tested on: SK-N-SH cell line (neuroblastoma); assay: MTT cell viability assay, SK-N-SH; format: cell-based; conditions: Homo sapiens, extract concentrations normalized to fucoxanthin purity, read-out: IC50, growth inhibition
Method: as §2

mice = tested on: mice; set-up: method as in PMID 22072997; conditions: repeated dose of 500 and 1000 mg/kg for 30 day; cited from earlier work
[14] = tested on: all tested cancer cell lines (nine human cancer cell lines); assay: MTT cell viability, all tested cancer cell lines; format: cell-based; conditions: 72 h, read-out: cell viability compared with untreated cell cultures
Method: All nine cancer cell lines were treated with pure fucoxanthin (Sigma) at concentrations of 1.5625, 6.25, 12.5, 25, 50, 80, 100 µM for 24, 48 and 72 h, respectively (Figure 3). There was significant difference between high and low concentrations and between 24, 48 and 72 h treatments (p < 0.05).
Human cancer cell lines used in this study were purchased from ATCC (Cryosite Ltd., Sydney, NSW, Australia), including lung carcinoma line A549, colon adenocarcinoma lines WiDr and Lovo, lung cancer line NCI-H522, hepatocellular carcinoma line Hep G2, neuroblastoma line SK-N-SH, breast adenocarcinoma line MCF, cervix squamous line SiHa, and malignant melanoma line Malme-3M. All nine cell lines were maintained in RPMI 1640 culture medium supplemented with 1% Penicillin-Streptomycin, 4 mM L-glutamine and 10% of FBS except Malme-3M (20% FBS). […]
Cell viability was determined by MTT assay as previously described with a slight modification. […]
Pure fucoxanthin standard and all U. pinnatifida fucoxanthin extracts were dissolved in pure ethanol to 5 mM as a stock solution, and the final ethanol concentration was 2% in the culture medium. […] The viable cell amount was determined by the absorbance at 540 nm using a multiplate-reader (UV-visible FLUOStar Omega Multidetection Microplate Reader, AlphaTech NZ Ltd., Auckland, New Zealand). […]

In the case of CC(=O)O[C@H]1CC(C)(C)C(=C=C/C(C)=C/C=C/C(C)=C/C=C/C=C(C)/C=C/C=C(\C)C(=O)C[C@@]23O[C@]2(C)C[C@@H](O)CC3(C)C)[C@](C)(O)C1 [Pure fucoxanthin, fucoxanthin], the IC50 ([1]; 48 h treatment) is reported as 32.2 µM, the IC50 ([1]; 72 h treatment) is reported as 15.7 µM and the “effect on growth of human non-cancer cells” value (human non-cancer cells) is reported as “promote the growth”. For the same compound, the IC50 ([2]; 48 h treatment) was 3.98 µM, the IC50 ([2]; 72 h treatment) was 3.36 µM and the IC50 ([3]; A549, 48 h treatment) was 44.7 ± 2.26 µM. It also gave an IC50 ([3]; A549, 72 h treatment) of 25.6 ± 1.07 µM, an IC50 ([4]; 48 h treatment) of 37.8 µM and an IC50 ([4]; Homo sapiens, 48 h, 48 h treatment) of 37.6 ± 1.49 µM. For the same compound, the IC50 ([4]; Homo sapiens, 72 h, 72 h treatment) was 18.9 ± 2.16 µM, the IC50 ([5]; Hep G2, 48 h treatment) was 58.9 ± 1.23 µM and the IC50 ([5]; Hep G2, 72 h treatment) was 25.9 ± 1.69 µM. For the same compound, the IC50 ([6]; MCF-7, 48 h treatment) was 44 ± 2.61 µM, the IC50 ([6]; MCF-7, 72 h treatment) was 22.5 ± 1.26 µM and the “toxicity at repeated doses” value (rats) was “did not show obvious toxicity”. For the same compound, the IC50 ([7]; 48 h treatment) was 39.6 ± 0.94 µM, the IC50 ([7]; 72 h treatment) was 21.8 ± 1.17 µM and the “growth inhibition effect on cells” value ([8]; HEK293, 6.25 μM, 24- and 48-h treatment) was “no growth inhibition effect”. The IC50 ([8]; HEK293, 48 h treatment) was 18.7 µM, the IC50 ([8]; HEK293, 72 h treatment) was 7.66 µM and the genotoxic/mutagenic effects (mouse bone marrow cells) was “not found”. For the same compound, the 50% lethal dose [9] was “more than 2000 mg/kg body weight”, the IC50 ([10]; 48 h treatment) was 28 ± 1.36 µM and the IC50 ([10]; 72 h treatment) was 17.3 ± 2.65 µM. For the same compound, the “concentration from which cell viability is significantly decreased” value ([10]; within 24 h) was ≥ 50 µM, the IC50 ([11]; 48 h treatment) was 42.3 ± 1.25 µM and the IC50 ([11]; 72 h treatment) was 25 ± 1.63 µM. It also gave an IC50 ([12]; NCI-H522, 48 h treatment) of 46.1 ± 1.07 µM, an IC50 ([12]; NCI-H522, 72 h treatment) of 24.5 ± 1.58 µM and an IC50 ([13]; 48 h treatment) of 52.7 ± 1.07 µM. The IC50 ([13]; 72 h treatment) was 31.2 ± 2.62 µM, the “histological abnormality in tissues (liver, kidney, spleen, gonadal)” value (mice) was “no abnormality was found” and the viability at 100 µM [14] was ~20%.
